Results on 13 molecules are retold here after patent publication US20260364081A1, “METHOD FOR PREVENTING OR TREATING ATTENTION DEFICIT HYPERACTIVITY DISORDER (ADHD) AND FOR PREPARING A COMPOUND OR SALT THEREOF” (ASTROGEN, INC., priority 2023, published 2026).

The structures appear in SMILES notation. Counter-ions that a name gives are not always drawn. Like-named read-outs stand apart in the source and are kept apart here.

One series deals with norepinephrine receptor (Homo sapiens, UniProt P23975). Particulars: read-out: norepinephrine reuptake inhibition IC50, HEK-293T cells stably expressing the norepinephrine receptor, 30 min drug incubation, 37 °C, 30 min kinetic fluorescence reading. The procedure:
The norepinephrine reuptake ability in a cell line expressing the norepinephrine receptor was confirmed using a kit (Neurotransmitter Transporter Uptake Assay Kit, Molecular Devices) composed of a fluorescent material that mimics amine neurotransmitters and a masking dye.
First, HEK-293T cells stably expressing the norepinephrine receptor were seeded in a 96-well Black/Clear Bottom Plate to contain 6×10^4 cells in 100 μl of cell culture medium per well. After incubating for 20 hours in a 37 °C, 5% CO2 incubator to allow the cells to properly attach and stabilize on the plate, the cell culture medium was removed, and 100 μl of an HBSS+0.1% BSA with 20 mM HEPES aqueous solution in which a drug of a target concentration was dissolved was dispensed into each well. For the control group, 100 μl of a drug-free buffer solution (HBSS+0.1% BSA with 20 mM HEPES aqueous solution) was dispensed. The plate was incubated for 30 minutes in a 37 °C, 5% CO2 incubator to allow the drug to sufficiently react with the receptor.
Thereafter, fluorescence was measured for a total of 30 minutes in Kinetic reading mode at Ex/Em=440 nm/520 nm using a fluorescence plate reader (SpectraMax®). The measured fluorescence intensity value was converted into a value of “reuptake inhibition rate (%)” using the following formula, and then a dose-response curve was plotted through 4-parameter (Log) logistic regression, and the IC50 value for each drug was calculated and compared (FIGS. 4 and 5).

Series [1] in a line: Thermal stability test (content by HPLC, visual discoloration). The class given is physicochemical. Particulars: for Content after 8 weeks / Content at 0 weeks / remaining at 1344 h: HPLC; for Content after 8 weeks / remaining at 1344 h: 8 weeks at 40±2 °C and 75±5% RH, opaque glass vials; for Content after 8 weeks: 80640 min; for Content at 0 weeks: start of storage at 40±2 °C and 75±5% RH; for remaining at 1344 h: solid, 75% rh, read-out: Content after 8 weeks; for Discoloration: visual, after 8 weeks at 40±2 °C and 75±5% RH. As to the method: 8 mg each of the viloxazine hydrochloride of Comparative Examples 1 and 2, and the novel salts of (S)-viloxazine of Examples 6 to 16 were placed into opaque glass vials and stored at 40±2 °C and 75±5% RH. After 8 weeks, each sample was taken out, its content was analyzed by high-performance liquid chromatography (HPLC), and the presence of discoloration was visually confirmed (Table 2).

For series [2] the following is noted: background statement; cited from earlier work.
Series [3] relates to attention-deficit/hyperactivity disorder (ADHD). Particulars: clinical trials, patients with ADHD, versus placebo; cited from earlier work.
A further series has as its system dopamine. Particulars: background statement; cited from earlier work.
In a further series the test system is 5HT2B receptor. Particulars: background statement; cited from earlier work.
In a further series the test system is CYP2D6. Particulars: background statement; cited from earlier work.
A further series concerns 5-HT2C receptor. Particulars: background statement; cited from earlier work.
In another series the test system is norepinephrine reuptake. Particulars: background statement, cited from earlier work.
For series [4] the following is noted: cited from earlier work.

Chain of norepinephrine receptor (P23975 whole entry): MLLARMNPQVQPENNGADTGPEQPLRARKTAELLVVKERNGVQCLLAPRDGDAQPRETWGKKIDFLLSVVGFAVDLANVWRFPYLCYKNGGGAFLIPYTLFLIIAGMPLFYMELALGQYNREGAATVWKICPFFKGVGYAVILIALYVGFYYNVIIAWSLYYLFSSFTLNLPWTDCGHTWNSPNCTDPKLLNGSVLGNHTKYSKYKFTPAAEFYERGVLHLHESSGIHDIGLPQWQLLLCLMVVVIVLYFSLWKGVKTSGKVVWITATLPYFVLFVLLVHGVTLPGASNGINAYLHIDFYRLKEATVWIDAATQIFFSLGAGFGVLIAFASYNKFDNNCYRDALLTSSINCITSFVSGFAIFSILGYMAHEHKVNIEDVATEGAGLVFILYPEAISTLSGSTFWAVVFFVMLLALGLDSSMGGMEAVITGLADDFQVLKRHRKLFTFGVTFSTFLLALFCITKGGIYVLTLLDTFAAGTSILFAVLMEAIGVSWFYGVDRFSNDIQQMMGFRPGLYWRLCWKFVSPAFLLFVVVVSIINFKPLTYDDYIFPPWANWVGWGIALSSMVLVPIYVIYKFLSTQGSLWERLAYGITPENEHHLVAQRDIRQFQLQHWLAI

`CCOc1ccccc1OC[C@@H]1CNCCO1` [Example 11, (S)-viloxazine trifluoroacetate]: the IC50 on norepinephrine receptor came to 33.6 µM. Moreover, in [1], the “Content after 8 weeks” value is reported as 98.5% and the “Content at 0 weeks” value worked out at 99.0%.

With `CCOc1ccccc1OC[C@@H]1CNCCO1` [Example 10, (S)-viloxazine acetate], at norepinephrine receptor, the IC50 came out at 24.3 µM. In series [1], the “Content after 8 weeks” value was 99.3% and the “Content at 0 weeks” value amounted to 99.6%.

With `CCOc1ccccc1OC[C@H]1CNCCO1` [Comparative Example 2, (R)-viloxazine hydrochloride, reference compound], on norepinephrine receptor, the IC50 came out at 108 µM. Further, in series [1], the “Content at 0 weeks” value was 99.2% and the remaining at 1344 h came to 98.1%. The Discoloration entry in series [1] (hydrochloride) is reported as “discolored to an off-white color”.

For `CCOc1ccccc1OC[C@@H]1CNCCO1` [Example 15, (S)-viloxazine citrate], the IC50 at norepinephrine receptor turned out to be 40.1 µM. In [1], the “Content after 8 weeks” value was determined as 98.6% and the “Content at 0 weeks” value turned out to be 99.0%.

For `CCOc1ccccc1OCC1CNCCO1` (racemic) [Comparative Example 1, (R,S)-viloxazine hydrochloride], the “route of excretion of metabolites” value in series [2] was “majority of its metabolites are excreted through urine”. Further, the “clinical efficacy in ADHD symptoms” value in series [3] is on record as “showed improved symptoms compared to patients who took a placebo”. The effect on dopamine result in the series on dopamine is “low effect on dopamine”. The “activity at 5HT2B receptor” value in the series with 5HT2B receptor was 5HT2B receptor antagonist. Besides, in the series on CYP2D6, the metabolizing enzyme result was “metabolized through the CYP2D6 enzyme”. In the series with 5-HT2C receptor, the “activity at 5-HT2C receptor” value is 5-HT2C receptor agonist. For the same molecule, at norepinephrine receptor, the IC50 came to 62.9 µM. The “norepinephrine reuptake inhibition (in words)” value in the series on norepinephrine reuptake (listed as Racemic viloxazine hydrochloride) was “selective inhibition of norepinephrine reuptake”. Further, in the series with norepinephrine reuptake (hydrochloride), the “norepinephrine reuptake inhibition (in words)” value is recorded as “selectively inhibits norepinephrine reuptake”. In addition, the “suicidal ideation or suicide risk” value in [4] (during initial treatment or dosage adjustment) was “increased risk of suicidal ideation or suicide”. Besides, in [4] (patients with bipolar disorder), the “risk in patients with bipolar disorder” value is “risk of worsening symptoms in patients with bipolar disorder”. Also, in series [4] (patients), the “most common side effects” value was “drowsiness, reduced appetite, fatigue, nausea, and insomnia”. Also, the “heart rate and blood pressure” value in series [4] (some of the patients administered viloxazine HCl) is “increase in heart rate and blood pressure”. Besides, the “risk of drug abuse, dependence, or withdrawal symptoms” value in [4] (upon treatment discontinuation) is “low risk of drug abuse, dependence, or withdrawal symptoms”. Further, in series [1], the “Content at 0 weeks” value was 99.5% and the remaining at 1344 h was 98.7%. Moreover, the Discoloration result in [1] (hydrochloride) is recorded as “discolored to an off-white color”.

In the case of `CCOc1ccccc1OC[C@@H]1CNCCO1` [Example 8, (S)-viloxazine hydrobromide], the IC50 at norepinephrine receptor (hydrobromide) was 38.6 µM. Further, in series [1] (hydrobromide), the “Content after 8 weeks” value was determined as 99.0% and the “Content at 0 weeks” value was 99.2%.

For `CCOc1ccccc1OC[C@@H]1CNCCO1` [Example 13, (S)-viloxazine fumarate], the concentration for half-maximal inhibition (IC50) at norepinephrine receptor was found to be 36.1 µM. Also, in series [1], the “Content after 8 weeks” value came to 98.5% and the “Content at 0 weeks” value came to 99.0%.

Take `CCOc1ccccc1OC[C@@H]1CNCCO1` [Example 12, (S)-viloxazine oxalate]: the IC50 on norepinephrine receptor is 34.3 µM. Also, in series [1], the “Content after 8 weeks” value is given as 98.6% and the “Content at 0 weeks” value turned out to be 99.1%.

On to `CCOc1ccccc1OC[C@@H]1CNCCO1` [Example 6, (S)-viloxazine hydrochloride], for which the IC50 on norepinephrine receptor (hydrochloride) worked out at 22.5 µM. In [1] (hydrochloride), the “Content at 0 weeks” value came out at 99.5%. For the same molecule, the remaining at 1344 h in series [1] turned out to be 99.2%.

As to `CCOc1ccccc1OC[C@@H]1CNCCO1` [Example 16, (S)-viloxazine methanesulfonate], in series [1], the “Content after 8 weeks” value is 98.0 → 98.0% and the “Content at 0 weeks” value is 98.0 → 98.0%.

As for `CCOc1ccccc1OC[C@@H]1CNCCO1` [Example 7, (S)-viloxazine sulfate], the IC50 at norepinephrine receptor worked out at 29.3 µM. Further, in [1], the “Content after 8 weeks” value amounted to 98.6% and the “Content at 0 weeks” value amounted to 99.3%.

For the molecule `CCOc1ccccc1OC[C@@H]1CNCCO1` [Example 14, (S)-viloxazine maleate], the IC50 at norepinephrine receptor amounted to 28.8 µM. Besides, in series [1], the “Content after 8 weeks” value was 98.5% and the “Content at 0 weeks” value came to 99.1%.

Take `CCOc1ccccc1OC[C@@H]1CNCCO1` [Example 9, (S)-viloxazine nitrate]: the IC50 on norepinephrine receptor worked out at 42 µM. Further, in [1], the “Content after 8 weeks” value turned out to be 97.7% and the “Content at 0 weeks” value was 98.2%.
